{"source": "patent US7148194B2", "about": "“Method to increase fibronectin” (Kimberly-Clark Worldwide, Inc., priority 2002, dated 2006)", "tested_on": "collagen production in human skin fibroblast cell line", "experiment": "collagen production in human skin fibroblasts, EIA", "type": "cell-based", "settings": "for Mean (collagen EIA, absorbance at 450 nm) / Median (collagen EIA, absorbance at 450 nm): 48 hours, n=2; for collagen production versus control: 10^−5 and 10^−6 M, P<0.001", "method": "The stimulation response of the 19mer peptide on collagen production in the human skin fibroblast cell line (Clonetics, Walkersville, Md., normal human dermal fibroblasts, neonatal, catalog number CC-2509) was measured using Takara Biomedicals EIA assay kit (TAK MKO101) sold by Panvera (Madison, Wis.). The cells were first grown in a 96-well assay system using DMEM with 10% fetal bovine serum (FBS) both purchased from Sigma Chemical Co, St. Louis, Mo. Serum-free DMEM was used as a control. […] Plates were incubated for 24 hours at 37° C. in a humidified 5% CO2 atmosphere. After incubation, the medium was aspirated and the wells were rinsed twice with 100 μl of serum-free DMEM. […] In addition, 100 μl of vehicle (serum-free DMEM) was added to 4 wells as control. All wells were incubated for 48 hours at 37° C. in a humidified, 5% CO2 atmosphere.\nThe assay was performed using the recommended 20ul of the supernatant from each well of the 96-well plate. Standard buffer and stop solutions were freshly prepared before running the assay. 100ul of antibody-POD conjugate solution (supplied with the kit) was added into the wells using pre antibody coated 96 well plate (supplied with the kit). 20ul of standard and test solutions (from the other 96-well plate containing fibroblasts) were added to appropriate wells. Plate was mixed gently, sealed and incubated for three hrs. at 37° C.\nAfter incubation each well was washed carefully four times with PBS buffer (400ul). All the wells were completely emptied at the end of washing from any liquid. 100ul of substrate solution (hydrogen peroxide and tetramethylbenzidine in a buffer solution, supplied with the kit) was added to each well and the plate was incubated for 15 minutes. At this point 100ul of stop solution (freshly prepared 1N H2SO4) was added to each well in the same order as substrate. The plate was gently mixed and absorbance was read at 450 nm. Results were analyzed statistically using one-way ANOVA."}
{"compound": "CC(C)[C@H](NC(=O)[C@H](CC(=O)O)NC(=O)[C@@H]1CCCN1C(=O)[C@H](CC(N)=O)NC(=O)CNC(=O)[C@H](CS)NC(=O)[C@H](CCCNC(=N)N)NC(=O)[C@@H]1CCCN1)C(=O)N[C@@H](C)C(=O)N[C@@H](CC(N)=O)C(=O)N[C@@H](Cc1ccc(O)cc1)C(=O)N[C@@H](CC(N)=O)C(=O)N[C@@H](Cc1ccccc1)C(=O)N[C@@H](Cc1ccccc1)C(=O)N1CCC[C@H]1C(=O)N[C@@H](CCCNC(=N)N)C(=O)N[C@@H](CCCCN)C(=O)N1CCC[C@H]1C(=O)N[C@@H](CCCCN)C(=O)O", "note": "[Peptide 19-mer]", "values": [{"measurement": "Mean (collagen EIA, absorbance at 450 nm)", "setting": "1×10^−5 M", "result": 0.8365}, {"measurement": "Median (collagen EIA, absorbance at 450 nm)", "setting": "1×10^−5 M", "result": 0.8365}, {"measurement": "Mean (collagen EIA, absorbance at 450 nm)", "setting": "1×10^−6 M", "result": 0.8315}, {"measurement": "Median (collagen EIA, absorbance at 450 nm)", "setting": "1×10^−6 M", "result": 0.8315}, {"measurement": "collagen production versus control", "result": "increased collagen production"}, {"measurement": "collagen production versus control", "setting": "listed as 19mer peptide", "result": "statistically significant amounts"}]}
